Experimental data reported in ChEMBL document CHEMBL4715789, “Identification of a Potential Antimalarial Drug Candidate from a Series of 2-Aminopyrazines by Optimization of Aqueous Solubility and Potency across the Parasite Life Cycle” (J Med Chem, 2016).
Converted amounts (≈) assume the structure as drawn.

Key:
[1] = system: Plasmodium falciparum; assay: microbe, parasite or virus in culture; settings: NF54, Erythrocyte
Description: Antiplasmodial activity against multidrug-sensitive Plasmodium falciparum NF54 infected in human erythrocytes assessed as reduction in [3H]hypoxanthine incorporation preincubated for 48 hrs followed by [3H]hypoxanthine addition and measured after 24 hrs by liquid scintillation counting method

[2] = Oral bioavailability in Sprague-dawley rat at 20 mg/kg by LC-MS/MS analysis; type: ADME, organism-based; settings: in vivo
[3] = Metabolic stability in rat liver microsomes assessed as compound remaining at 0.1 uM measured after 30 mins in presence of cofactor NADPH by LC-MS/MS analysis; type: ADME, Microsome; settings: read-out: Stabilty
[4] = system: Plasmodium falciparum; assay: Antimalarial activity against Plasmodium falciparum 3D70087/N9 infected in NOD-SCID IL2Rgamma null mouse assessed as blood AUC level require to show 90% reduction in parasitemia administered orally on day 3 to 6 post-infection and measured day 7 post infection; type: functional, organism-based; settings: time 5.0 day
[5] = Half-life in Sprague-dawley rat at 20 mg/kg, po by LC-MS/MS analysis; type: ADME, organism-based; settings: in vivo
[6] = Apparent average plasma concentration in NMRI mouse plasma infected with Plasmodium berghei ANKA at 3 mg/kg, po qd for 4 consecutive days and measured post last dose; type: ADME, organism-based; settings: in vivo, 96 h, time 4 day
[7] = Metabolic stability in human liver microsomes assessed as compound remaining at 0.1 uM measured after 30 mins in presence of cofactor NADPH by LC-MS/MS analysis; type: ADME, Microsome; settings: read-out: Stabilty
[8] = Aqueous solubility of compound in pH 6.5 PBS incubated for 2 hrs under shaking condition by shake-flask method based HPLC-DAD analysis; type: physicochemical
[9] = Cmax(app) in NMRI mouse plasma infected with Plasmodium berghei ANKA at 3 mg/kg, po qd for 4 consecutive days and measured post last dose; type: ADME, organism-based; settings: time 4 day
[10] = system: Plasmodium falciparum; assay: microbe, parasite or virus in culture; settings: K1, Erythrocyte
Description: Antiplasmodial activity against multidrug-resistant Plasmodium falciparum K1 infected in erythrocytes assessed as reduction in [3H]hypoxanthine incorporation preincubated for 48 hrs followed by [3H]hypoxanthine addition and measured after 24 hrs by liquid scintillation counting method

[11] = system: Plasmodium berghei; assay: Antiplasmodial activity against Plasmodium berghei ANKA infected in NMRI mouse model assessed as reduction in parasitemia administered orally once a day for 4 consecutive days measured at day 7 post infection by flow cytometry analysis; type: functional; settings: po, 96 h, time 4 day
[12] = system: Plasmodium falciparum; assay: Antiplasmodial activity against early stage (II/III) Plasmodium falciparum NF54 gametocytes incubated for 48 hrs by luciferase reporter gene assay; type: functional, organism-based; settings: NF54, 48 h
[13] = system: Plasmodium berghei; assay: Antiplasmodial activity against Plasmodium berghei ANKA infected in NMRI mouse model assessed as mean survival days at 10 mg/kg, po qd for 4 consecutive day; type: functional; settings: time 4 day
[14] = Metabolic stability in mouse liver microsomes assessed as compound remaining at 0.1 uM measured after 30 mins in presence of cofactor NADPH by LC-MS/MS analysis; type: ADME, Microsome; settings: read-out: Stabilty
[15] = Selectivity index, ratio of IC50 for cytotoxicity against CHO cells by MTT assay to IC50 for antiplasmodial activity against multidrug-sensitive Plasmodium falciparum NF54 infected in human erythrocytes; type: toxicity, cell-based; settings: Chinese hamster, read-out: Ratio IC50
[16] = Aqueous solubility of compound in pH 2 0.01M HCl incubated for 2 hrs under shaking condition by shake-flask method based HPLC-DAD analysis; type: physicochemical
[17] = system: Plasmodium berghei; assay: Antiplasmodial activity against Plasmodium berghei ANKA infected in NMRI mouse model assessed as mean survival days at 3 mg/kg, po qd for 4 consecutive day; type: functional; settings: time 4 day
[18] = system: Plasmodium falciparum; assay: Antiplasmodial activity against late stage (IV/V) Plasmodium falciparum NF54 gametocytes incubated for 48 hrs by luciferase reporter gene assay; type: functional, organism-based; settings: NF54, 48 h
[19] = system: Plasmodium falciparum; assay: Antiplasmodial activity against Plasmodium falciparum 3D70087/N9 infected in NOD-SCID IL2Rgamma null mouse assessed as reduction in parasitemia administered orally on day 3 to 6 post-infection and measured day 7 post infection by TER-119-PE and […] dye based flow cytometry; type: functional; settings: 3D70087/N9, po, 120 h, time 5 day
[20] = AUC(app) in NMRI mouse plasma infected with Plasmodium berghei ANKA at 3 mg/kg, po qd for 4 consecutive days and measured post last dose; type: ADME, organism-based; settings: time 4 day
[21] = molecular target: Voltage-gated inwardly rectifying potassium channel KCNH2 (Homo sapiens, UniProt Q12809); assay: Inhibition of human ERG by IonWorks patch clamp electrophysiology method
Chain of Voltage-gated inwardly rectifying potassium channel KCNH2 (Q12809 whole entry): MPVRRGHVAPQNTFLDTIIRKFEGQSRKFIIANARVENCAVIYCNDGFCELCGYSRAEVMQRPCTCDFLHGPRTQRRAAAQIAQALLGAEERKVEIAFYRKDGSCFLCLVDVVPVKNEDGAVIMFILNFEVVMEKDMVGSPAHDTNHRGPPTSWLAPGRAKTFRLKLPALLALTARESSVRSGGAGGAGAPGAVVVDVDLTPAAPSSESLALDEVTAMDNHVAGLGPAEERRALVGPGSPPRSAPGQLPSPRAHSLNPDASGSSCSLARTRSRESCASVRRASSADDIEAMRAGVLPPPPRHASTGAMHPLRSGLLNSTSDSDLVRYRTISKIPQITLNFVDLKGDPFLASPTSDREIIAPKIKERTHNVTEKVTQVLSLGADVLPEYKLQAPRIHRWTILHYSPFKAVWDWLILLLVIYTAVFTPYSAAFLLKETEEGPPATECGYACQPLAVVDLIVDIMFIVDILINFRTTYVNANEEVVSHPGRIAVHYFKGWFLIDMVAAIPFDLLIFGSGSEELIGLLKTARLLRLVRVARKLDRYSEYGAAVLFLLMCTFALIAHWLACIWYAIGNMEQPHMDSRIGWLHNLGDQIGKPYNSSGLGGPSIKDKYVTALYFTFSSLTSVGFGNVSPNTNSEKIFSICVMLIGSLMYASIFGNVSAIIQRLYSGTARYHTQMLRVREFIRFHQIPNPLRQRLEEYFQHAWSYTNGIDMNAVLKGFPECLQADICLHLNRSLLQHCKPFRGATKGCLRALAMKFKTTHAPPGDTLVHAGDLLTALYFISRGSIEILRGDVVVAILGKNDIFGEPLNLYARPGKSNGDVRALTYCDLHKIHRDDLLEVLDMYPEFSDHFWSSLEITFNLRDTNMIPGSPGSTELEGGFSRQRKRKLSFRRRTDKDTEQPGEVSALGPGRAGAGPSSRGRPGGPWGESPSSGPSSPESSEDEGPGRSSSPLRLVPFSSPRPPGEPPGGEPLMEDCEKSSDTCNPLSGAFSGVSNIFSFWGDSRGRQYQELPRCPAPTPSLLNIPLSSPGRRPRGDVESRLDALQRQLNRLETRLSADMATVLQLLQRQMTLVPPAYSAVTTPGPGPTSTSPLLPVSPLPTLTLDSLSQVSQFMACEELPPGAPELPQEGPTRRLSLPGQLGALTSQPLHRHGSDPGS

[22] = system: Plasmodium berghei; assay: Antiplasmodial activity against Plasmodium berghei ANKA infected in NMRI mouse assessed as reduction in parasitemia at 3 mg/kg, po qd for 4 consecutive days measured at day 7 post infection by flow cytometry analysis; type: functional; design: scale not given: the % may be the effect or the level left; settings: time 4 day
[23] = system: Plasmodium berghei; assay: Antiplasmodial activity against Plasmodium berghei ANKA infected in NMRI mouse assessed as reduction in parasitemia at 10 mg/kg, po qd for 4 consecutive days measured at day 7 post infection by flow cytometry analysis; type: functional; design: scale not given: the % may be the effect or the level left; settings: time 4 day
[24] = system: hERG (KCNH2); assay: Selectivity ratio of IC50 for inhibition of human ERG by IonWorks patch clamp electrophysiology method to IC50 for antiplasmodial activity against multidrug-sensitive Plasmodium falciparum NF54 infected in human erythrocytes; type: toxicity, cell-based; settings: read-out: Ratio IC50
[25] = system: Plasmodium berghei; assay: Antiplasmodial activity against Plasmodium berghei ANKA infected in NMRI mouse model assessed as mean survival days at 30 mg/kg, po qd for 4 consecutive days; type: functional; settings: time 4 day
[26] = system: Plasmodium berghei; assay: Antiplasmodial activity against luciferase expressing Plasmodium berghei sporozoites infected in human HepG2 cells preincubated with compound for 18 hrs followed by plasmodium infection measured after 48 hrs by bioluminescence assay; type: functional, organism-based
[27] = Oral bioavailability in Sprague-dawley rat at 15 mg/kg by LC-MS/MS analysis; type: ADME, organism-based; settings: in vivo
[28] = Half-life in Sprague-dawley rat at 5 mg/kg, iv by LC-MS/MS analysis; type: ADME, organism-based; settings: in vivo
[29] = Volume of distribution in Sprague-dawley rat at 5 mg/kg, iv by LC-MS/MS analysis; type: ADME, organism-based; settings: in vivo
[30] = Clearance in Sprague-dawley rat at 5 mg/kg, iv by LC-MS/MS analysis; type: ADME, organism-based; settings: in vivo
[31] = Half-life in Sprague-dawley rat at 3 mg/kg, iv by LC-MS/MS analysis; type: ADME, organism-based; settings: in vivo
[32] = Half-life in Sprague-dawley rat at 10 mg/kg, po by LC-MS/MS analysis; type: ADME, organism-based; settings: in vivo
[33] = Oral bioavailability in Sprague-dawley rat at 10 mg/kg by LC-MS/MS analysis; type: ADME, organism-based; settings: in vivo
[34] = Volume of distribution in Sprague-dawley rat at 3 mg/kg, iv by LC-MS/MS analysis; type: ADME, organism-based; settings: in vivo
[35] = Clearance in Sprague-dawley rat at 3 mg/kg, iv by LC-MS/MS analysis; type: ADME, organism-based; settings: in vivo

Row | Compound | IC50 [1] [nM] | bioavailability [2] [%] | remaining at 0.5 h, 0.1 µM [3] [%] | AUC [4] [ng·h/mL] | half-life [5] [h] | Cave [6] [nM] | remaining at 0.5 h, 0.1 µM [7] [%] | solubility thermodynamic at 2 h [8] [µM] | Cmax [9] [nM] | IC50 [10] [nM] | IC50 [12] [nM] | MSD [13] [days] | remaining at 0.5 h, 0.1 µM [14] [%] | selectivity ratio [15] | solubility thermodynamic at 2 h [16] [µM] | MSD [17] [days] | IC50 [18] [nM] | ED90 [19] [mg/kg] | Activity [23] [%] | IC50 [26] [nM] | other results
1 | NC(=O)c1ccc(-c2cnc(N)c(-c3ccc(C(F)(F)F)cc3)n2)cc1 | 14 | 25 | > 90 | < 75 | 7 | 1800 | > 90 | < 5 | 4000 | 13 | 754 | >30 | > 90 | > 1800 | 80 (≈ 28.7 µg/mL) | 20 | 237 | < 0.1 | – | – | ED90 [11]: 0.3 mg/kg; AUC at 96 h [20]: 42.3 µM·h
2 | Nc1ncc(-c2ccc(C(=O)N3CCC(O)CC3)cc2)nc1-c1ccc(C(F)(F)F)nc1 | 10 | – | > 90 | – | – | – | > 90 | 184 (≈ 81.6 µg/mL) | – | 9 | – | 7 | > 90 | – | 200 (≈ 88.7 µg/mL) | 7 | – | – | 85 | – | IC50 [21]: > 33000 nM; Activity [22]: 64%; selectivity ratio [24]: > 868
3 | O[C@@H](c1cc(C(F)(F)F)nc2c(C(F)(F)F)cccc12)[C@H]1CCCCN1 [(S,R)-MEFLOQUINE] | – | – | – | – | – | – | – | – | – | – | – | – | – | – | – | – | – | – | – | – | MSD [25]: 29 days
4 | Nc1ncc(-c2ccc(C(=O)O)cc2)nc1-c1ccc(C(F)(F)F)cc1 | 33 | – | > 90 | 200 | – | 3500 | > 90 | 95 (≈ 34.1 µg/mL) | 5000 | 32 | 649 | >30 | > 90 | > 1800 | < 5 | 14 | 729 | < 0.1 | 99.9 | 51 | ED90 [11]: 0.56 mg/kg; IC50 [21]: > 33000 nM; Activity [22]: 99.9%; AUC at 96 h [20]: 79.7 µM·h; selectivity ratio [24]: > 1000; bioavailability [27]: 94%
5 | Nc1ncc(-c2ccc(C(=O)N3CC(O)C3)cc2)nc1-c1ccc(C(F)(F)F)cc1 | 9.2 | 20 | > 90 | 22 | 5.2 | – | > 90 | 55 (≈ 22.8 µg/mL) | – | 7 | 415 | >30 | > 90 | > 1800 | 110 (≈ 45.6 µg/mL) | 10 | 45 | 0.17 | 99.9 | 2.7 | half-life [28]: 3 h; Vd [29]: 5.7 L/kg; clearance [30]: 22 mL/min/kg; Activity [22]: 99.7%
6 | Nc1ncc(-c2ccc(C(=O)N3CCC(O)CC3)cc2)nc1-c1ccc(C(F)(F)F)cc1 | 5.4 | – | > 90 | 60 | – | – | > 90 | 19 (≈ 8.41 µg/mL) | – | 5 | 603 | 11 | > 90 | > 1800 | 119 (≈ 52.7 µg/mL) | 7 | 179 | 0.11 | 99.9 | 4.1 | half-life [31]: 8.1 h; half-life [32]: 5.4 h; IC50 [21]: > 33000 nM; bioavailability [33]: 25%; Vd [34]: 5.1 L/kg; clearance [35]: 7.1 mL/min/kg; selectivity ratio [24]: > 1000
7 | Nc1ncc(-c2ccc(C(=O)N3CC[C@@H](O)C3)cc2)nc1-c1ccc(C(F)(F)F)cc1 | 22 | 71 | > 90 | 60 | 7.2 | 1930 | > 90 | 90 (≈ 38.6 µg/mL) | 3290 | 20 | 323 | 26 | > 90 | > 1800 | 103 (≈ 44.1 µg/mL) | 8 | 137 | 0.14 | 100 | 14 | half-life [28]: 5.3 h; ED90 [11]: 1.1 mg/kg; IC50 [21]: > 33000 nM; Vd [29]: 8.2 L/kg; clearance [30]: 13.5 mL/min/kg; AUC at 96 h [20]: 33.2 µM·h; selectivity ratio [24]: > 1000
8 | Nc1ncc(-c2ccc(C(=O)O)cc2)nc1-c1ccc(C(F)(F)F)nc1 | 19 | 38 | > 90 | < 440 | 3.9 | 1480 | > 90 | 178 (≈ 64.1 µg/mL) | 2290 | 26 | 168 | 10 | > 90 | > 1800 | 191 (≈ 68.8 µg/mL) | 7 | 845 | < 0.5 | 99.8 | 528 | Activity [22]: 93%; AUC at 96 h [20]: 30.8 µM·h
9 | C[C@H]1[C@H](OC(=O)CCC(=O)O)O[C@@H]2O[C@@]3(C)CC[C@H]4[C@H](C)CC[C@@H]1[C@@]24OO3 [ARTESUNATE] | 4 | – | – | – | – | – | – | – | – | 3 | – | – | – | – | – | – | – | – | – | – | MSD [25]: 10 days
10 | Nc1ncc(-c2ccc(C(=O)N3CCNCC3)cc2)nc1-c1ccc(C(F)(F)F)cc1 | 5.4 | 98 | > 90 | < 65 | 5.3 | 200 | > 90 | 158 (≈ 67.5 µg/mL) | 400 | 5.2 | 134 | >30 | > 90 | > 1800 | 192 (≈ 82.1 µg/mL) | 10 | 66 | 0.25 | >99.9 | 0.92 | half-life [28]: 7.8 h; ED90 [11]: 1 mg/kg; IC50 [21]: 10000 nM; Vd [29]: 5.5 L/kg; clearance [30]: 10.3 mL/min/kg; Activity [22]: >99.9%; AUC at 96 h [20]: 5.4 µM·h; selectivity ratio [24]: 1900
